# Measurements taken from patent publication US20100048657A1, “CONTROL OF MALIGNANT CELLS PROLIFERATION THROUGH THE INHIBITION OF CASEIN KINASE 2” (CLEVELAND STATE UNIVERSITY, priority 2006, published 2010).
# Key:
# Assay type in all cases: cell-based, human
# MEG-01 cells [1] = test: Anchorage independence assay in soft agar; conditions: 25 μM
# Experimental: Anchorage independence of growth in soft agar assay is an assay for detecting malignant transformation of cells. Anchorage independence is given by defects in the cellular adhesion pathways. Anchorage independence is strongly connected with tumorogenicity and invasiveness. Malignant cells form colonies when grown on soft agar. Normal cells cannot grow on soft agar. Agarose (V3121 from Promega, with melting point at 87-89° C. and gelling point at 36-39° C.) was mixed with MEG-01 growth media RPMI1640 1× with 10% FBS and supplements. A bottom layer of 0.5% makes a firm base, then a top layer of 0.3% agarose with media and over the agarose a layer of growth media was added. Cells were grown in 12 wells dishes at 37° C., 5% CO2, 90% humidity in a VWR incubator. […] This modified image was then transformed into a default threshold image and then colonies were gated and measured.
# Referring to FIGS. 2-4, anchorage independence assay in soft agar ([…] and 0.3% top layer agar, with complete MEG-01 cells, growth media) is illustrated. […] The area of each colony was measured using the software NIH Image version 1.63. First the background was subtracted from a gray binary image, then default threshold was applied and then colonies were measured by appropriate gating. 85 colonies from 30 images were measured. […]
# [2] = system: αIIbβ3 integrin expression on MEG-01 cells; test: RPE-CD41a flow cytometric immunophenotyping (maturation)
# Excerpt: CD41a is the antigen for αIIbβ3 complex and it is found on platelets and platelet precursors, including MEG-1 cell line (Ogura et al., 1985; Zunino et al., 2001). It acts as a receptor for fibrinogen, von Willebrand factor, fibronectin, and vitronectin, and it mediates platelet adhesion and aggregation. αIIbβ3 complex is a marker of differentiation for megakaryocytes (as an increase in the fluorescence of stained cells corresponds to more αIIbβ3 receptor expression and differentiation towards platelets production) and it is simply a marker for the platelets. CD41a is conjugated with R-Phytocoerthrin (RPE), in order to be used in flow cytometry experiments. The staining protocol provided by BD Biosciences was followed. Briefly, cells were washed and resuspended in 1×PBS with 0.1% FBS, 0.01% NaN3, and 0.22 μm filtered buffer. Cells were counted and adjusted to be 10^6 cells/ml and 20 μl of RPE-CD41a was used for 180 μl cell suspension.
# RPE conjugated stained cells were collected on FL2H channel and gating on populations was done on FSC and SSC logarithmic modes. […]
# Regarding FIGS. 16-20, maturation (differentiation) of MEG-01 cells is described. […] Control untreated unstained—plot A, control untreated stained—plot B, 10 μM DMAT—plot C, 25 μM TBB—plot D, 1 nM PMA treatments—plot E. FIG. 18 represents total percentage relative fluorescence for RPE-CD41a immunophenotyping. […]
# MEG-01 cells [3] = test: DNA content assay with PI and RNAase A; conditions: 10 μM, 4 days
smiles,measurement,setting,value
"CN(C)c1nc2c(Br)c(Br)c(Br)c(Br)c2[nH]1 [DMAT, 2-dimethylamino-4,5,6,7-tetrabromo-1H-benzimidazole]",colony sizes versus Control untreated,"MEG-01 cells [1]; 85 colonies from 30 images, paired t-test p<0.0001",extremely significant
same,colony formation in soft agar,MEG-01 cells [1]; observed after one week,do not form colonies at all
same,"maturation level (RPE-CD41a, αIIbβ3 expression)",[2]; 10 μM,very significant maturation levels versus control untreated
same,"maturation level (RPE-CD41a, αIIbβ3 expression)","[2]; 20 μM, compared with 10 μM",slight increase in the maturation level
same,ploidy (DNA content),MEG-01 cells [3],higher than 2N
